13 molecules from ChEMBL document CHEMBL3044613, “Insecticidal and Neuroblocking Activities of Thiacloprid and Its Acyclic Analogues and Their Related Cyanoguanidine Derivatives” (J Pestic Sci, 2002) can be followed below.

In series [1] the test system is Periplaneta americana. The series is described as follows: Insecticidal activity against Periplaneta americana (American cockroach) assessed as increase in frequency of impulses in nerve preparation measured immediately after treatment at 10^-5 M by electrophysiological method. The series is classed as functional, organism-based.
The test system of series [2] is Periplaneta americana. The series is described as follows: Insecticidal activity against Periplaneta americana (American cockroach) assessed as killing compound injected into abdomen of cockroach after 24 hr in presence of 50 ug propargyl propyl benzenephosphonate inhibitor of hydrolytic metabolism of tetramethrin pyrethroid. The class given is functional.
In series [3] the test system is Periplaneta americana. The series is described as follows: Insecticidal activity against Periplaneta americana (American cockroach) assessed as killing compound injected into abdomen of cockroach after 24 hr in presence of 50 ug piperonyl butoxide oxidative metabolism inhibitor and 50 ug propargyl propyl benzenephosphonate inhibitor of hydrolytic. The series is classed as functional.

The test system of series [4] is Periplaneta americana. The series is described as follows: Insecticidal activity against Periplaneta americana (American cockroach) assessed as neuroblocking concentration. The series is classed as functional.
Series [5] relates to Periplaneta americana. The series is described as follows: Insecticidal activity against Periplaneta americana (American cockroach) assessed as killing compound injected into abdomen of cockroach after 24 hr in presence of 50 ug piperonyl butoxide oxidative metabolism inhibitor. The series is classed as functional.
Series [6] has as its system Periplaneta americana. The series is described as follows: Insecticidal activity against Periplaneta americana (American cockroach) assessed as killing compound injected into abdomen of cockroach after 24 hr. The class given is functional.
A short description of series [7]: Octanol-water partition coefficient, log P of the compound at 23 degC by shake flask method. The series is classed as physicochemical.

Activity calls are given as the source filed them. The calls are words filed in the database; no cut-off is given here. Where only a bound is given, the exact number is not on record here.

By logP is commonly meant a log measure of how a compound divides between an organic and an aqueous phase. Read a low logP as lower lipophilicity. With `CN/C(=N\C#N)NCc1ccc(Cl)nc1`, the outcome in the series on Periplaneta americana [1] was Active. The MLD is 18 nmol with Periplaneta americana [2], 8.9 nmol with Periplaneta americana [3], 180 nmol with Periplaneta americana [5] and greater than 180 nmol in the series with Periplaneta americana [6]. Besides, the Activity in the series on Periplaneta americana [4] worked out at 110 µM. The logP in series [7] was 0.84.

For `N#C/N=C1\SCCN1Cc1ccc(Cl)nc1` [THIACLOPRID], the MLD in the series on Periplaneta americana [2] worked out at 0.46 nmol; with Periplaneta americana [3], 0.21 nmol; in the series with Periplaneta americana [5] it was 5.9 nmol; with Periplaneta americana [6], 21 nmol. Further, the Activity with Periplaneta americana [4] amounted to 2.6 µM. In series [7], this molecule registered a logP of 1.2.

Consider `CS/C(=N\C#N)NCc1ccc(Cl)nc1`, for which the MLD was 0.83 nmol in the series with Periplaneta americana [2], 0.66 nmol in the series with Periplaneta americana [3], 21 nmol with Periplaneta americana [5] and greater than 83 nmol in the series with Periplaneta americana [6]. The Activity in the series on Periplaneta americana [4] was 1.7 µM. Besides, the logP in series [7] was 1.27.

Regarding `CCN/C(=N\C#N)N(C)Cc1ccc(Cl)nc1`, the MLD in the series on Periplaneta americana [3] was found to be 40 nmol; with Periplaneta americana [6], 26 nmol. The Activity in the series with Periplaneta americana [4] is greater than 160 µM. In addition, in series [7], the logP is 1.02.

Regarding `CN(C)/C(=N\C#N)NCc1ccc(Cl)nc1`, the MLD in the series with Periplaneta americana [3] is 140 nmol; in the series with Periplaneta americana [6], greater than 170 nmol. In the series on Periplaneta americana [4], the Activity is greater than 170 µM. In addition, in series [7], the logP worked out at 0.66.

`CCN/C(=N\C#N)NCc1ccc(Cl)nc1`: the MLD in the series with Periplaneta americana [3] and in the series with Periplaneta americana [6] was greater than 170 nmol in each case. Also, in the series on Periplaneta americana [4], the Activity is greater than 170 µM. The molecule further yielded a logP in series [7] of 0.86.

`CN/C(=N\C#N)N(C)Cc1ccc(Cl)nc1`: the MLD stood at 54 nmol with Periplaneta americana [3] and 68 nmol in the series with Periplaneta americana [6]. The Activity in the series on Periplaneta americana [4] is greater than 170 µM. The molecule also had a log partition coefficient (logP) in series [7] of 0.78.

For the molecule `O=[N+]([O-])/N=C1\NCCN1Cc1ccc(Cl)nc1` [IMIDACLOPRID], the MLD is reported as 0.19 nmol in the series on Periplaneta americana [2], 0.07 nmol in the series on Periplaneta americana [3], 0.55 nmol with Periplaneta americana [5] and 1.1 nmol in the series on Periplaneta americana [6]. The Activity in the series on Periplaneta americana [4] amounted to 2.3 µM. Besides, the logP in series [7] amounted to 0.6.

Take `CS/C(=N\C#N)N(C)Cc1ccc(Cl)nc1`: the MLD was 6.3 nmol in the series with Periplaneta americana [2], 2.5 nmol with Periplaneta americana [3], 71 nmol in the series on Periplaneta americana [5] and 160 nmol in the series on Periplaneta americana [6]. Also, the Activity in the series on Periplaneta americana [4] came out at 6 µM. The molecule also came in with a log partition coefficient (logP) in series [7] of 1.4.

Consider `CN(C)/C(=N\C#N)N(C)Cc1ccc(Cl)nc1`, for which the MLD worked out at 32 nmol in the series on Periplaneta americana [2], 20 nmol in the series with Periplaneta americana [3], 200 nmol with Periplaneta americana [5] and 320 nmol with Periplaneta americana [6]. In the series on Periplaneta americana [4], the Activity is greater than 400 µM. In series [7], this molecule gave a logP of 0.66.

Turning to `CN(Cc1ccc(Cl)nc1)/C(=N/C#N)NCc1ccccc1`, the MLD in the series with Periplaneta americana [2] was determined as 8.1 nmol; in the series on Periplaneta americana [3] it was 6.3 nmol; in the series on Periplaneta americana [5] it was 25 nmol; in the series on Periplaneta americana [6] it was 81 nmol. Besides, the Activity in the series with Periplaneta americana [4] turned out to be 150 µM. The molecule further yielded a logP in series [7] of 1.32.

Consider `N#C/N=C(\NCc1ccccc1)NCc1ccc(Cl)nc1`, for which the MLD in the series with Periplaneta americana [3] is given as 66 nmol; with Periplaneta americana [6], greater than 66 nmol. The Activity in the series with Periplaneta americana [4] was 150 µM.

As to `CN(Cc1ccc(Cl)nc1)/C(N)=N/C#N`, the MLD amounted to 0.71 nmol in the series on Periplaneta americana [2], 1.2 nmol in the series on Periplaneta americana [3], 14 nmol with Periplaneta americana [5] and 22 nmol in the series on Periplaneta americana [6]. Further, the Activity in the series with Periplaneta americana [4] was 9.6 µM. The molecule also gave a log partition coefficient (logP) in series [7] of 0.71.
